Measurements taken from the Kinase Knowledgebase extract (Sharma et al. 2016).

These molecules were tested against CDK2 (UniProt P24941) (assay: Enzyme Assay).

Row | Structure (SMILES) | IC50 [µM]
1 | CC(=O)Nc1ncc(SCc2nc(C)c(C)o2)s1 | < 50
2 | CC(C)(C)c1cnc(CSc2cnc(Nc3ccc(S(N)(=O)=O)cc3)s2)o1 | < 50
3 | CC(C)(C)c1cnc(CSc2cnc(Nc3ccc(S(=O)(=O)NCCO)cc3)s2)o1 | < 50
4 | CC(C)(C)c1cnc(CSc2cnc(NC(=NC#N)Nc3c(F)cccc3F)s2)o1 | < 50
5 | CC(C)(C)c1cnc(CSc2cnc(Nc3cccc(CO)c3)s2)o1 | < 50
6 | CC(=O)Nc1ncc(SC(F)c2ncc(C(C)C)o2)s1 (centres undefined) | < 50
7 | CC(=O)Nc1ncc(SCc2ncc(C(C)(C)C)o2)s1 | < 50
8 | CCc1cnc(CSc2cnc(NC(C)=O)s2)o1 | < 50
9 | CCc1coc(CSc2cnc(NC(C)O)s2)n1 (centres undefined) | < 50
10 | CC(C)(C)C(=O)Cc1ncc(SCc2ncc(C(C)(C)C)o2)s1 | < 50
11 | CC(C)(C)c1cnc(CSc2cnc(Nc3ccncn3)s2)o1 | < 50
12 | CC(C)(CO)CNCc1ccc(Nc2ncc(SCc3ncc(C(C)(C)C)o3)s2)nc1 | < 50
13 | CC(C)(C)c1cnc(CSc2cnc(Nc3ccccn3)s2)o1 | < 50
14 | CCc1cnc(CSc2cnc(NC(=O)c3ccccc3)s2)o1 | < 50
